Experimental data reported in US7144706B2, “Methods of modulating localization and physiological function of IP3 receptors” (Duke University, priority 2002, dated 2006).
“Also recorded” adds a separate entry of the source. Where no end group is shown, it is not given here.

Columns and labels:
IP3R = experiment: [3H]IP3 binding assay and Scatchard analysis, cardiac muscle microsomes; parameters: species or system mouse; conditions: for Kd: n=5
Method: IP3 Binding Experiments. Cardiac membranes were prepared and labeled with increasing concentrations (5–40 nM) of [^3H] IP3 (Amersham) essentially as described (Perez et al, J. Biol. Chem. 272:23961 1997)). Assays were performed in triplicate, and at each IP3 concentration, non-specific binding was assessed in the presence of 1 μM unlabeled IP3 (ICN).

[1] = tested on: wildtype and ankyrin-B (+/−) mice; experiment: Heart rate by ECG radiotelemetry in conscious mice after drug injection; type: in vivo, mouse; conditions: for heart rate response to endothelin-1: 300 ng/kg
Method: (§1) EKG recordings. EKG recordings were obtained using a radiotelemetry apparatus (DSI). Transmitters were implanted and the mice recovered for 5 days prior to recordings. EKG traces were analyzed using Data Quest analysis software 2.1 (DSI). P wave duration, PR interval, RR interval, QRS interval and QT interval were all calculated according to established methods. The rate corrected QT interval (QTc) was calculated from the relationship QTc=QT/(RR)^1/2 Following a 15-hour fast, blood glucose levels were measured (OneTouch Ultra; Lifescan) before and up to 120 min after an intraperitoneal injection of either PBS, glucose (2 g/kg) or insulin (5 units/kg; Eli Lilly) (Ludwig et al, J. Clin. Invest. 107:379–386 (2001)).
To test ankyrin-B heterozygous mice for potential defects in Gαq signaling, ECG radiotransmitter implants were implanted in the abdomen of ankyrin-B (+/−) mice as well as wildtype littermate controls. These probes allow the recording of real time ECG and thus heart rate recordings in conscious, non-anethestized mice. 24 hour recordings of wildtype mice compared to heterozygote animals show overall bradycardia in the heterozygote (FIG. 9).

[2] = tested on: (+/+) and AnkB (+/−) mice; experiment: Insulin-tolerance test, blood glucose; type: in vivo, mouse; conditions: 5 units/kg intraperitoneal, 120 min
Method: as §1

Na/K ATPase = experiment: [3H]ouabain binding to adult cardiac microsomes; parameters: species or system mouse
Text: Na/K ATPase, Na/Ca exchanger (NCX) and IP3R are candidate ankyrin-binding proteins based on biochemical data (Bennett et al, Physiol. Rev. 81:1353 (2001)) that are localized at T-tubules (Frank et al, in The Myocardium (ed. Langer, G A) 1–32 (Academic Press, San Diego, Calif., 1997)). Ankyrin-B co-immunoprecipitates with NCX1, α1 and α2 ATPase, and IP3R from extracts of heart tissue (FIG. 30B), but not with other cardiomyocyte proteins (including DHPR, SERCA2, and calsequestrin). Levels of IP3R (pan IP3R), α1 and α2 Na/K ATPase subunits, and NCX in isolated adult cardiomyocytes are reduced by 15–33% in AnkB+/− cardiomyocytes by immunoblots (FIG. 30C). Measurements of binding of [^3H] […] In contrast, by quantitative western blot analysis, protein levels of ER/SR components (SERCA2, calreticulin, calsequestrin), K+ channels or associated subunits (KCNQ1/KvLQT1, ERG1, MinK/IsK, Kir2.1/IRK1, Kir2.3/IRK3), RyR2, plasma membrane Ca^+2 channels (DHPR, PMCA2), and structural proteins (α-actinin, dystrophin) are unaffected (FIG. 30C).

[3] = tested on: adult AnkB+/− and control ventricular cardiomyocytes; experiment: Action potential recordings in isolated adult ventricular cardiomyocytes with isoproterenol; type: cell-based, mouse; conditions: for extrasystoles in action potentials after acute isoproterenol: isoproterenol (1 μM); for myocytes with DADs and EADs: isoproterenol
Method: Patch clamp methods. AnkB+/− and +/+ animals (1–3 months of age) were sacrificed by IP injection of pentobarbital sodium (100 mg/kg). Single myocytes were isolated (Santana et al, J. Physiol. 503:21 (1997)). Axopatch-200A or -200B amplifier (Axon Instruments) was used to measure membrane currents (Santana et al, J. Physiol. 503:21(1997), Santana et al, Science 279:1027 (1998)). Patch pipette (1–3 MOhm) solution (mM): CsCl (130); NaCl (10); MgATP (5); Hepes (10), MgCl2 (1) PH 7.2 (with CsOH). Superfusion solution 1: (mM) NaCl (140), KCl (5) MgCl2 (0.5), CaCl2 (1.8), NaH2PO4 (0.33), glucose (5.5) and HEPES (5); pH 7.4 at 35–37° C. Solution 2 was same as solution 1 but with CsCl substituted for KCl. After conversion to whole cell, voltage clamp in solution (1), solution (2) was used to measure ICa. Test depolarizations followed four 50 ms depolarizations to 0 mV at 1 Hz. A 500 ms ramp-depolarization from […] to 40 mV was followed by a 50 ms period at 40 mV before test depolarizations.
AP recordings. Myocytes were superfused with Solution 1. β adrenergic stimulation of cells produced by the addition of 1 μM isoproterenol to solution 1. Pipette filling solution as above, except KCl was substituted for CsCl (pH 7.2 with KOH). Axopatch 200A was used in current clamp mode to record AP. Current injections triggered AP at constant rate (1 Hz, 5 Hz). All experiments were performed at 37° C.

AnkB+/− and +/+ mice = tested on: AnkB+/− and +/+ mice
Text: Sudden cardiac death in humans with the E1425G mutation occurred secondary to physical exertion and emotional stress (FIG. 28)3. An attempt was made to mimic these circumstances in mice with exercise followed by injection with epinephrine.

Molecule: O=P(O)(O)O[C@@H]1[C@H](O)[C@H](O)[C@@H](OP(=O)(O)O)[C@H](OP(=O)(O)O)[C@H]1O [IP3, inositol 1,4,5-triphosphate]
- Bmax, IP3 binding capacity (IP3R; (+/+) cardiac muscle): 0.083 pmol/mg
- Kd (IP3R; (+/+) cardiac muscle): 24 nM
- Bmax, IP3 binding capacity (IP3R; AnkB (+/−) cardiac muscle): 0.056 pmol/mg
- Kd (IP3R; AnkB (+/−) cardiac muscle): 25 nM
- reduction in IP3 binding capacity (IP3R; AnkB (+/−) vs wildtype heart): 33%
- affinity for ligand, AnkB+/− vs +/+ (IP3R; adult cardiac microsomes): unchanged

Molecule: endothelin-1 (CSCSSLMDKECVYFCHLDIIW; ends and bridges not checked; cysteine pairing not given here; UniProt P05305 53-73, looked up) [signals via a Gαq-coupled receptor]
- heart rate response to endothelin-1 ([1]; ankyrin-B (+/−) mice): significantly reduced; also recorded: does not reach the same levels as the wildtype
- heart rate response to endothelin-1 ([1]; wildtype animals): significant decrease in heart rate

Molecule: insulin
- blood glucose after insulin injection ([2]; (+/+) mice): decline following the insulin injection and return to near normal levels by the end of the 120 min period
- blood glucose after insulin injection ([2]; AnkB (+/−) mice): significant reduction in blood glucose levels

Molecule: C[C@@H]1O[C@@H](O[C@H]2C[C@@H](O)[C@]3(CO)[C@H]4[C@H](O)C[C@]5(C)[C@@H](C6=CC(=O)OC6)CC[C@]5(O)[C@@H]4CC[C@]3(O)C2)[C@H](O)[C@H](O)[C@H]1O [ouabain]
- reduction in [3H]ouabain binding capacity (Na/K ATPase; AnkB+/− heart vs +/+): 16%
- affinity for ligand, AnkB+/− vs +/+ (Na/K ATPase; adult cardiac microsomes): unchanged

Molecule: CC(C)NCC(O)c1ccc(O)c(O)c1 (stereo not drawn) [isoproterenol]
- heart rate response to isoproterenol ([1]; wildtype and ankyrin-B (+/−) mice, 50 mg/kg): responsed equally
- extrasystoles in action potentials after acute isoproterenol ([3]; AnkB+/− cardiomyocytes): developed spontaneous extrasystoles at both 1 and 5 Hz
- myocytes with DADs and EADs ([3]; AnkB+/− myocytes, 1 and 5 Hz): 36%
- extrasystoles in action potentials after acute isoproterenol ([3]; control cells): did not
- myocytes with DADs and EADs ([3]; control myocytes): no control myocytes

Molecule: CNC[C@H](O)c1ccc(O)c(O)c1 [epinephrine]
- mice that became unresponsive or died (AnkB+/− and +/+ mice; +/+ mice): 0/6
- mice that died following exercise combined with epinephrine (AnkB+/− and +/+ mice; AnkB+/− mice): 8/14
- time to polymorphic ventricular arrhythmias after EPI (AnkB+/− and +/+ mice; AnkB+/− mouse, exercise and epinephrine): ~17 min

Molecule: CC(C)NCC(O)COc1cccc2ccccc12 (stereo not drawn) [propanolol]
- heart rate response to propanolol ([1]; wildtype and ankyrin-B heterozygote mice): typical decreases in heart rate which were not significantly different

Molecule: CNC[C@H](O)c1cccc(O)c1 [phenylephrine]
- heart rate response to phenylephrine ([1]; ankyrin-B (+/−) mice, 3 mg/kg): significant decreased heart rate sensitivity; also recorded: does not reach the same minimum levels as the wildtype
- maximal decrease in heart rate after phenylephrine during beta blockade ([1]; ankyrin-B heterozygous mice, propanolol injected prior to phenylephrine): ~50 % of the wildtype response
- heart rate response to phenylephrine ([1]; wildtype mice, 3 mg/kg intraperitoneal): rapid decrease in heart rate
